Paper PMC8446442, “Crystal Structure of Mycobacterium tuberculosis Elongation Factor G1” (Frontiers in Molecular Biosciences, 2021)

Experiments:
[1] = target: T1, Mtb EF-G1 (Elongation factor G1) (Mycobacterium tuberculosis, UniProt P9WNM7); assay: SPR (Biacore T200), […] steady-state affinity fit; assay type: binding; parameters: gene fusA; recombinant Mtb EF-G1 with a C-terminal His tag, immobilized on CM5 chip
[2] = target: T1, Mtb EF-G1 (Elongation factor G1); assay: ITC at […] °C; crystal structure of the complex ([…] Å, SeMet SAD); assay type: binding; parameters: gene fusA; recombinant Mtb EF-G1 with a C-terminal His tag

T1 sequence (P9WNM7 whole entry): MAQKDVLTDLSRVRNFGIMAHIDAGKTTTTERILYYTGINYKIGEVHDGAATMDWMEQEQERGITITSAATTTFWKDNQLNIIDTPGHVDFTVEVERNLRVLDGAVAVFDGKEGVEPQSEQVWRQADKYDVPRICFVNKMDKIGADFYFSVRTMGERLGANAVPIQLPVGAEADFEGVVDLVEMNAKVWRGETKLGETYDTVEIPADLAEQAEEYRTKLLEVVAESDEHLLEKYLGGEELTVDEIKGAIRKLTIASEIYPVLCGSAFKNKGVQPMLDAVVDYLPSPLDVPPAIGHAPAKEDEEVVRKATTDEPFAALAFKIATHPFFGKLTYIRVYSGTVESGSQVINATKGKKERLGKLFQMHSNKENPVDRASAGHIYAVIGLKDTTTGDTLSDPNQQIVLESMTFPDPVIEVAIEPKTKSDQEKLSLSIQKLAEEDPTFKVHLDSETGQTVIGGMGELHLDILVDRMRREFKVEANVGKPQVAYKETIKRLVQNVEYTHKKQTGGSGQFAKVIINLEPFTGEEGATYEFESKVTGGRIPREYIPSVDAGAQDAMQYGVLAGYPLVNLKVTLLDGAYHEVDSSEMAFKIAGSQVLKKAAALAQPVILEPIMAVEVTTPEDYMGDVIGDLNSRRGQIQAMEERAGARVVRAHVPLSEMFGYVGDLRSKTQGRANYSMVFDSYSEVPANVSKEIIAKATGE

Compound: CC(=O)O[C@H]1C[C@@]2(C)[C@@H](C[C@@H](O)[C@H]3[C@@]4(C)CC[C@@H](O)[C@@H](C)[C@@H]4CC[C@@]32C)/C1=C(\CCC=C(C)C)C(=O)O [FA, Fusidic acid]
- Kd [1]: 3.54 µM

Compound: Nc1nc2c(ncn2[C@@H]2O[C@H](COP(=O)(O)OP(=O)(O)O)[C@@H](O)[C@H]2O)c(=O)[nH]1 [GDP]
- Kd [2]: 11.5 ± 0.3 µM
